# Experimental data taken from US20250122219A1 (priority 2023, published 2025).
# What was measured:
# [1] = Cytotoxicity assay in MT-4 cells; type: cell-based; conditions: human; uninfected MT-4 cells, 5 days incubation, Cell Titer Glo; read-out: MT4 CC50
# Method in brief: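 Viability read by Cell Titer Glo luminescence after 5 days at 37 °C. MT-4 cells, not infected, in complete RPMI (10% FBS), received compound dilution series. Base cytotoxicity set with […] puromycin.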
# HIV-1 (IIIB) = assay: Antiviral assay in MT-4 cells; type: cell-based; conditions: Human immunodeficiency virus 1, MT4, 120 h; HIV-1 IIIB in MT-4 cells, 5 days incubation, Cell Titer Glo; read-out: MT4 EC50
# Protocol: Compounds were tested in a high-throughput 384-well assay format for their ability to inhibit the replication of HIV-1 (IIIB) in MT-4 cells. Compounds were serially diluted (1.3) in DMSO on 384-well polypropylene plates and further diluted 200-fold into complete RPMI media (10% FBS, 1% P/S) using the Biotek Micro Flow and Labcyte ECHO acoustic dispenser. Each plate contained up to 8 test compounds, with negative (No Drug Control) and 5 μM AZT positive controls. MT-4 cells were pre-infected with 10 μL of either RPMI (mock-infected) or a fresh 1:250 dilution of HIV-1 IIIB concentrated virus stock. Infected and uninfected MT-4 cells were further diluted in complete RPMI media and added to each plate using a Micro Flow dispenser. After 5 days incubation in a humidified and temperature controlled incubator (37° C.), Cell Titer Glo (Promega) was added to the assay plates and chemiluminescence read using an Envision plate-reader.
EC50 (HIV-1 (IIIB)),Structure (SMILES),CC50 at 5 days [1]
1.78 nM,"COC1=NO[C@@]2(CC[C@H](C)N3C[C@H]2n2cc(C(=O)NCc4ccc(F)cc4F)c(=O)c(OCOC(=O)CCCC(C)C)c2C3=O)C1 [Example 113, (((3′S,5S,7′R)-10′-((2,4-difluorobenzyl)carbamoyl)-3-methoxy-3′-methyl-1′,11′-dioxo-1′,4′,5′,11′-tetrahydro-3′H,4H,7′H-spiro[isoxazole-5,6′-[2,7]methanopyrido[1,2-a][1,4]diazonin]-12′-yl)oxy)methyl 5-methylhexanoate]",20300 nM
0.495 nM,"CCCCCCCCCCCCOC(=O)OCOc1c2n(cc(C(=O)NCc3ccc(F)cc3F)c1=O)[C@@H]1CN(C2=O)[C@@H](C)CC[C@]12CC(C)=NO2 [Example 190, (((3′S,5S,7′R)-10′-((2,4-difluorobenzyl)carbamoyl)-3,3′-dimethyl-1′,11′-dioxo-1′,4′,5′,11′-tetrahydro-3′H,4H,7′H-spiro[isoxazole-5,6′-[2,7]methanopyrido[1,2-a][1,4]diazonin]-12′-yl)oxy)methyl dodecyl carbonate]",≥ 50000 nM
0.459 nM,"CC1=NO[C@@]2(CC[C@H](C)N3C[C@H]2n2cc(C(=O)NCc4ccc(F)cc4F)c(=O)c(OC(=O)CCC4CCCC4)c2C3=O)C1 [Example 59, (3′S,5S,7′R)-10′-((2,4-difluorobenzyl)carbamoyl)-3,3′-dimethyl-1′,11′-dioxo-1′,4′,5′,11′-tetrahydro-3′H,4H,7′H-spiro[isoxazole-5,6′-[2,7]methanopyrido[1,2-a][1,4]diazonin]-12′-yl 3-cyclopentylpropanoate]",15400 nM
3.25 nM,"CCCCCCCCCOC(=O)OCOc1c2n(cc(C(=O)NCc3ccc(F)cc3F)c1=O)[C@@H]1CN(C2=O)[C@@H](C)CC[C@]12CC(OC)=NO2 [Example 187, (((3′S,5S,7′R)-10′-((2,4-difluorobenzyl)carbamoyl)-3-methoxy-3′-methyl-1′,11′-dioxo-1′,4′,5′,11′-tetrahydro-3′H,4H,7′H-spiro[isoxazole-5,6′-[2,7]methanopyrido[1,2-a][1,4]diazonin]-12′-yl)oxy)methyl nonyl carbonate]",43900 nM
33.5 nM,"CCCCCCCCCCCCCCCCOC(=O)OCOc1c2n(cc(C(=O)NCc3ccc(F)cc3F)c1=O)[C@@H]1CN(C2=O)[C@@H](C)CC[C@]12CC(OC)=NO2 [Example 195, (((3′S,5S,7′R)-10′-((2,4-difluorobenzyl)carbamoyl)-3-methoxy-3′-methyl-1′,11′-dioxo-1′,4′˜5′,11′-tetrahydro-3′H,4H,7′H-spiro[isoxazole-5,6′-[2,7]methanopyrido[1,2-a][1,4]diazonin]-12′-yl)oxy)methyl hexadecyl carbonate]",≥ 50000 nM
2.63 nM,"CCCCCCC(=O)OCOc1c2n(cc(C(=O)NCc3ccc(F)cc3F)c1=O)[C@@H]1CN(C2=O)[C@@H](C)CC[C@]12CC(OC)=NO2 [Example 93, (((3′S,5S,7′R)-10′-((2,4-difluorobenzyl)carbamoyl)-3-methoxy-3′-methyl-1′,11′-dioxo-1′,4′,5′,11′-tetrahydro-3′H,4H,7′H-spiro[isoxazole-5,6′-[2,7]methanopyrido[1,2-a][1,4]diazonin]-12′-yl)oxy)methyl heptanoate]",19500 nM
2.53 nM,"CCC(=O)OCOc1c2n(cc(C(=O)NCc3ccc(F)cc3F)c1=O)[C@@H]1CN(C2=O)[C@@H](C)CC[C@]12CC(C)=NO2 [Example 86, (((3′S,5S,7′R)-10′-((2,4-difluorobenzyl)carbamoyl)-3,3′-dimethyl-1′,11′-dioxo-1′,4′,5′,11′-tetrahydro-3′H,4H,7′H-spiro[isoxazole-5,6′-[2,7]methanopyrido[1,2-a][1,4]diazonin]-12′-yl)oxy)methyl propionate]",21000 nM
1.42 nM,"CCC(=O)Oc1c2n(cc(C(=O)NCc3ccc(F)cc3F)c1=O)[C@@H]1CN(C2=O)[C@@H](C)CC[C@]12CC(C)=NO2 [Example 33, (3′S,5S,7′R)-10′-((2,4-difluorobenzyl)carbamoyl)-3,3′-dimethyl-1′,11′-dioxo-1′,4′,5′,11′-tetrahydro-3′H,4H,7′H-spiro[isoxazole-5,6′-[2,7]methanopyrido[1,2-a][1,4]diazonin]-12′-yl propionate]",22600 nM
3.87 nM,"CC1=NO[C@@]2(CC[C@H](C)N3C[C@H]2n2cc(C(=O)NCc4ccc(F)cc4F)c(=O)c(OCOC(=O)OCC(C)C)c2C3=O)C1 [Example 199, (((3′S,5S,7′R)-10′-((2,4-difluorobenzyl)carbamoyl)-3,3′-dimethyl-1′,11′-dioxo-1′,4′,5′,11′-tetrahydro-3′H,4H,7′H-spiro[isoxazole-5,6′-[2,7]methanopyrido[1,2-a][1,4]diazonin]-12′-yl)oxy)methyl isobutyl carbonate]",15500 nM
0.2 nM,"CCCCC(=O)OCOc1c2n(cc(C(=O)NCc3ccc(F)cc3F)c1=O)[C@@H]1CN(C2=O)[C@@H](C)CC[C@]12CC(OC)=NO2 [Example 89, (((3′S,5S,7′R)-10′-((2,4-difluorobenzyl)carbamoyl)-3-methoxy-3′-methyl-1′,11′-dioxo-1′,4′,5′,11′-tetrahydro-3′H,4H,7′H-spiro[isoxazole-5,6′-[2,7]methanopyrido[1,2-a][1,4]diazonin]-12′-yl)oxy)methyl pentanoate]",15800 nM
0.246 nM,"CCCCCCCCCC(=O)OCOc1c2n(cc(C(=O)NCc3ccc(F)cc3F)c1=O)[C@@H]1CN(C2=O)[C@@H](C)CC[C@]12CC(C)=NO2 [Example 100, (((3′S,5S,7′R)-10′-((2,4-difluorobenzyl)carbamoyl)-3,3′-dimethyl-1′,11′-dioxo-1′,4′,5′,11′-tetrahydro-3′H,4H,7′H-spiro[isoxazole-5,6′-[2,7]methanopyrido[1,2-a][1,4]diazonin]-12′-yl)oxy)methyl decanoate]",≥ 50000 nM
0.403 nM,"CCCCCC(=O)Oc1c2n(cc(C(=O)NCc3ccc(F)cc3F)c1=O)[C@@H]1CN(C2=O)[C@@H](C)CC[C@]12CC(C)=NO2 [Example 37, (3′S,5S,7′R)-10′-((2,4-difluorobenzyl)carbamoyl)-3,3′-dimethyl-1′,11′-dioxo-1′,4′,5′,11′-tetrahydro-3′H,4H,7′H-spiro[isoxazole-5,6′-[2,7]methanopyrido[1,2-a][1,4]diazonin]-12′-yl hexanoate]",17400 nM
4.5 nM,"CCCCCCCCCCCCCCCC(=O)Oc1c2n(cc(C(=O)NCc3ccc(F)cc3F)c1=O)[C@@H]1CN(C2=O)[C@@H](C)CC[C@]12CC(OC)=NO2 [Example 27, (3′S,5S,7′R)-10′-((2,4-difluorobenzyl)carbamoyl)-3-methoxy-3′-methyl-1′,11′-dioxo-1′,4′,5′,11′-tetrahydro-3′H,4H,7′H-spiro[isoxazole-5,6′-[2,7]methanopyrido[1,2-a][1,4]diazonin]-12′-yl palmitate]",≥ 50000 nM
0.284 nM,"CCCCOC(=O)OCOc1c2n(cc(C(=O)NCc3ccc(F)cc3F)c1=O)[C@@H]1CN(C2=O)[C@@H](C)CC[C@]12CC(C)=NO2 [Example 176, butyl ((((3′S,5S,7′R)-10′-((2,4-difluorobenzyl)carbamoyl)-3,3′-dimethyl-1′,11′-dioxo-1′,4′,5′,11′-tetrahydro-3′H,4H,7′H-spiro[isoxazole-5,6′-[2,7]methanopyrido[1,2-a][1,4]diazonin]-12′-yl)oxy)methyl) carbonate]",23000 nM
0.203 nM,"CCCC(=O)Oc1c2n(cc(C(=O)NCc3ccc(F)cc3F)c1=O)[C@@H]1CN(C2=O)[C@@H](C)CC[C@]12CC(C)=NO2 [Example 35, (3′S,5S,7′R)-10′-((2,4-difluorobenzyl)carbamoyl)-3,3′-dimethyl-1′,11′-dioxo-1′,4′,5′,11′-tetrahydro-3′H,4H,7′H-spiro[isoxazole-5,6′-[2,7]methanopyrido[1,2-a][1,4]diazonin]-12′-yl butyrate]",14100 nM
1.79 nM,"COCCCCCC(=O)Oc1c2n(cc(C(=O)NCc3ccc(F)cc3F)c1=O)[C@@H]1CN(C2=O)[C@@H](C)CC[C@]12CC(C)=NO2 [Example 71, (3′S,5S,7′R)-10′-((2,4-difluorobenzyl)carbamoyl)-3,3′-dimethyl-1′,11′-dioxo-1′,4′,5′,11′-tetrahydro-3′H,4H,7′H-spiro[isoxazole-5,6′-[2,7]methanopyrido[1,2-a][1,4]diazonin]-12′-yl 6-methoxyhexanoate]",19500 nM
2.01 nM,"CCCCCCCCCCCC(=O)Oc1c2n(cc(C(=O)NCc3ccc(F)cc3F)c1=O)[C@@H]1CN(C2=O)[C@@H](C)CC[C@]12CC(C)=NO2 [Example 47, (3′S,5S,7′R)-10′-((2,4-difluorobenzyl)carbamoyl)-3,3′-dimethyl-1′,11′-dioxo-1′,4′,5′,11′-tetrahydro-3′H,4H,7′H-spiro[isoxazole-5,6′-[2,7]methanopyrido[1,2-a][1,4]diazonin]-12′-yl dodecanoate]",22600 nM
